The species entered for assay [1] is Cavia porcellus. Briefly: Compound was evaluated for inhibition of electrically evoked contractions of the myenteric plexus-longitudinal muscle of the Guinea pig small intestine. The conditions noted are these: Muscle tissue. In kind it is functional.
For assay [2], the species on record is Cavia porcellus. Briefly: Compound was evaluated for maximum inhibition of electrically evoked contractions of the myenteric plexus-longitudinal muscle of the Guinea pig small intestine. In kind it is functional. Particulars: Muscle tissue.

Each structure is given as a SMILES string.

`CC1=C(CCN2CCOCC2)c2ccccc2C1=Cc1cccc2ccccc12` [listing 1 of 2 here]: the EC50 in assay [1] came out at 52.9 nM.

In the case of `C1=C(CCN2CCOCC2)c2ccccc2/C1=C/c1cccc2ccccc12`, the half-maximal effective concentration (EC50) in assay [1] was found to be 6.57 nM.

Compound `C1=C(CCN2CCOCC2)c2ccccc2/C1=C\c1cccc2ccccc12` displayed a concentration giving a half-maximal response (EC50) in assay [1] of 283 nM.

In assay [1], `CC1=C(CCN2CCOCC2)c2ccccc2C1=Cc1cccc2ccccc12` [listing 2 of 2 here] had an EC50 greater than 3160 nM.

In assay [2], `Cc1c(C(=O)c2cccc3ccccc23)c2cccc3c2n1[C@H](CN1CCOCC1)CO3` [WIN-552122] displayed an Emax of 61.9%. The same compound returned an EC50 in assay [1] of 4.92 nM.
